How the values were obtained:
[1] = In vitro metabolic stability in mouse liver lysate; format: in vitro ADME; settings: 24-hour incubation of RG4326
Description: Metabolic stability was evaluated by incubating each anti-miR-17 compound in a mouse liver lysate. After 24 hours, the percentage of intact compound remaining is calculated. Compounds that are not stable following a 24-hour incubation are potentially not stable in vivo.
(§1) Due to their reduced capacity for serum protein binding, which is a property that drives oligonucleotide distribution in the body, short oligonucleotides are not necessarily expected to have pharmacokinetic properties that make them suitable for use as drugs. RG4326 was incubated in mouse, monkey or human liver homogenate. The identity and concentration of RG4326 and metabolites was determined after a 24-hour incubation. RG4326 and metabolites were extracted using liquid-liquid extraction (LLE) and/or solid-phase extraction (SPE), which were then analyzed for identity and concentration using ion-pairing-reversed-phase high performance liquid chromatography coupled with time-of-flight mass spectrometry (IP—RP-HPLC-TOF).

[2] = In vitro metabolic stability in monkey liver lysate; format: in vitro ADME; settings: 24-hour incubation of RG4326
Description: as §1

[3] = In vitro metabolic stability in human liver lysate; format: in vitro ADME; settings: 24-hour incubation of RG4326
Description: as §1

[4] = system: Pcy mice; experiment: Efficacy in the Pcy model of PKD; format: in vivo, mouse
Excerpt: Two experimental models of PKD were used to evaluate efficacy. Pkd2-KO mice spontaneously develop polycystic kidney disease, and were used as a model of ADPKD. See Patel et al., PNAS, 2013; 110 (26): 10765-10770. Pcy mice bearing a mutation in Nphp3 spontaneously develop polycystic kidney disease, with a slower progression of disease than that observed in the Pkd2-KO mice. The Pcy model is used as a model of nephronophthisis. See Happe and Peters, Nat. Rev. Nephrol., 2014; 10:587-601.
Cyst index is a histological measurement of cystic area relative to total kidney area. For this analysis, one kidney was perfused with cold PBS and 4% (wt/vol) paraformaldehyde and then harvested. Kidneys were fixed with 4% paraformaldehyde for 2 hours and then, embedded in paraffin for sectioning. Sagittal sections of kidneys were stained with hematoxylin and eosin (H&E). All image processing steps were automated and took place in freely available and open source software: An R1 script which used functions from the EBImage Bioconductor package2 and the ImageMagick3 suite of image processing tools. Kidney H&E images in Aperio SVS format were converted to TIFF images, and the first frame was retained for image analysis. First, the total kidney section area was calculated using image segmentation. Image segmentation was similarly used to find all internal structures including kidney cyst. A filter was applied to remove all objects less than a mean radius of three pixels. The cystic index is the image area associated with cysts divided by the total kidney areas. Cystic index was separately calculated for longitudinal and transverse kidney sections for each individual animal. Combined cystic index of individual animals were compared for each treatment groups.
RG4326 was tested in the Pcy mouse model. Wild-type mice were used as control group. From four weeks of age, Pcy mice were treated once per week via subcutaneous injection with RG4326 at a dose of 25 mg/kg, tool anti-miR-17 at a dose of 25 mg/kg, control oligonucleotide RG5124 at a dose of 25 mg/kg, or PBS. Each treatment group contained 15 male mice. Three treatments were administered on […] days of age, and weekly thereafter at 6, 7, 8, 9, 10, 11, 12, 13, and 14 weeks of age. Also tested was tolvaptan, a vasopressin V2-receptor antagonist (VRA) that is prescribed to some patients with polycystic kidney disease. Mice were sacrificed at 15 weeks of age. Body weight was recorded. One kidney was extracted and weighed and the other processed for histological analysis to calculate cyst index as described for the study in the Pkhd1/cre; Pkd2^F/F. Blood urea nitrogen (BUN) level and serum creatinine level were measured. Statistical significance was calculated by one-way ANOVA with Dunnett's multiple correction.

[5] = Tissue accumulation in kidney and liver (kidney-to-liver ratio); format: in vivo, mouse; settings: single dose 30 mg/kg, seven days; for Kidney-to-Liver Ratio PKD Mice: JCK mice
Description: Pharmacokinetic properties and tissue distribution of select compounds were assessed in wild type C57BL6 mice and JCK mice (an experimental model of PKD). Compound was administered to wild type mouse at a dose of 0.3, 3, or 30 mg/kg, or to JCK mice at a dose of 3, 30, or 100 mg/kg. After seven days, mice were sacrificed. Kidney and liver tissues were collected. Concentration of anti-miR-17 compound was measured in liver and kidney. Compounds that accumulate to a greater level in kidney, relative to liver (i.e., have a higher kidney-to-liver ratio) were preferred.
(§2) The miPSA was used to assess the potency of each compound, measured by the displacement score, in wild type and JCK mice. Tissue accumulation of anti-miR-17 compound was measured by extraction of compound using liquid-liquid extraction (LLE) and/or solid-phase extraction (SPE), followed by analysis of the identity and concentration of compound using ion-pairing-reversed-phase high performance liquid chromatography coupled with time-of-flight mass spectrometry (IP—RP-HPLC-TOF).
(§3) Wild type mice were administered a single dose of 3 mg/kg for the miPSA analysis, and a single dose of 30 mg/kg for the tissue accumulation analysis. JCK mice were administered a single dose of 30 mg/kg for both the miPSA and tissue accumulation analyses. Kidney tissue was collected seven days following the administration of anti-miR-17 compound. […] A higher kidney-to-liver ratio is generally preferred for a disease where the primary site of action is the kidney.

[6] = system: miR-17; experiment: microRNA polysome shift assay (miPSA), kidney target engagement; format: in vivo, mouse; set-up: miPSA Score Wild Type Mice / miPSA Score PKD Mice / miPSA displacement score (mean): scale not given here; settings: kidney, seven days; for miPSA Score PKD Mice: JCK mice, single dose 30 mg/kg; for miPSA Score Wild Type Mice: single dose 3 mg/kg
Description: (§4) In vivo potency was evaluated using the microRNA polysome shift assay (miPSA). This assay was used to determine the extent to which compounds directly engage the miR-17 target in the kidney in normal and PKD mice. The miPSA relies on the principle that active miRNAs bind to their mRNA targets in translationally active high molecular weight (HMW) polysomes, whereas the inhibited miRNAs reside in the low MW (LMW) polysomes. Treatment with anti-miR results in a shift of the microRNA from HMW polysomes to LMW polysomes. Thus, the miPSA provides a direct measurement of microRNA target engagement by a complementary anti-miR (Androsavich et al., Nucleic Acids Research, 2015, 44: e13).
as §2, §3
as §4, with “The” for “In vivo potency was evaluated using the”, “(miPSA),” for “(miPSA). This assay”, “identify” for “determine the extent to which”, “compounds that” for “compounds”, “engage” for “engage the”, “miR-17” for “miR-17 target”
For this experiment, the PKD model selected was the JCK model, a mouse model of slowly progressing renal cystic disease associated with the same gene that causes human nephronophthisis type 9. Renal cysts in this mouse develop in multiple regions of the nephron.
C57BL6 mice were treated with a single, subcutaneous dose of 0.3, 3, and 30 mg/kg of RG4326 or tool anti-miR-17 (described in Example 1). JCK mice were treated with a single, subcutaneous dose of 3, 30, and 100 mg/kg of RG4326 or tool anti-miR-17. PBS treatment was used as an additional control. At seven days post-treatment, mice were sacrificed, and kidney tissue was isolated for the miPSA. […] The displacement scores following treatment with RG4326 were greater than the displacement scores following treatment with the tool anti-miR-17 compound. The data for wild-type mice and JCK mice are also shown in FIG. 3A and FIG. 3B, respectively.
Pharmacokinetic behavior was assessed by administering a single subcutaneous 30 mg/kg dose of RG4326 or tool anti-miR-17 compound to wild-type mice. At one hour, four hours, eight hours, one day, seven days, 14 days, 28 days and 56 days following the single injection, mice were sacrificed and the mean concentration of anti-miR compound in kidney and liver tissue was measured (ug/g) as described above. The area-under-curve (AUC) was calculated for kidney and liver tissue using the formula ug*h/g, where ug is the amount of oligonucleotide in the tissue, h is the timepoint of tissue collection in hours, and g is the weight of the tissue. The ratio of kidney AUC to liver AUC was determined. Kidney tissue was also processed to the miPSA, to determine target engagement for each compound in this study. […]

[7] = 25 mg/kg s.c. for oligonucleotides, sacrificed at 15 weeks of age

Compound | Ex Vivo Liver Lysate (% Analyte), Mouse [1] | Ex Vivo Liver Lysate (% Analyte), Monkey [2] | Ex Vivo Liver Lysate (% Analyte), Human [3] | Kidney-to-Liver Ratio PKD Mice [5] | Kidney-to-Liver Ratio Wild Type Mice [5] | miPSA Score PKD Mice [6] | miPSA Score Wild Type Mice [6] | also measured
5′-ASGSCMAF-3′ [Metabolite 2] | 0.6% | 2.3% | 0.7% |  |  |  |  | 
5′-ASGSCMAFCF-3′ [Metabolite 1] | 0.3% | 1.8% | 0.6% |  |  |  |  | 
Cc1ccccc1C(=O)Nc1ccc(C(=O)N2CCCC(O)c3cc(Cl)ccc32)c(C)c1 (stereo not shown) [Tolvaptan, tolvaptan] |  |  |  |  |  |  |  | efficacy on KW/BW ratio, BUN or cyst index (in words) [4]: not efficacious; BUN (mean) [4, 7]: 24.4; Cystic Index (mean) [4, 7]: 0.26; KW/BW Ratio (mean) [4, 7]: 20.1
ASGMCFAFCFUFUFUMGS [Compound 4327] |  |  |  | 9.4 | 24.9 | 1.53 | 2.85 | 
ASGSCMAMCMUMUMUSGS [Compound 4325] |  |  |  | 5.7 | 12.4 | 2.00 | 1.82 | 
ASGSCMASCMUSUMUSGS [Compound 4324] |  |  |  | 3.9 | 5.0 | 2.53 | 2.81 | 
